Several values for one entry are separate records, joined by “and”; a condition that tells them apart may be missing. Equal entries are not always repeated. Results filed as inconclusive are left out.
Test system: nude mice, LX-1 lung xenograft intrarenal, tumor weight T/C
Experiment: NCI In Vivo Anticancer Drug Screen. Data for tumor model Human Lung LX-1 Xenograft (intrarenal inoculation) in NU/NU Swiss (nude) mice
Details: endpoint: mean tumor weight change, higher = larger tumour
Outline: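 Readout: T/C, i.e. treated-group tumor measurement over vehicle-control measurement. Mice bearing transplantable tumors were dosed with compound or vehicle.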

[1] = dose: 600.0 mg/kg/injection, schedule: Q04DX003 (sc), vehicle: Klucel (hydroxypropylcellulose) (HPC)
[2] = dose: 1200.0 mg/kg/injection, schedule: Q04DX003 (sc), vehicle: Klucel (hydroxypropylcellulose) (HPC)
[3] = dose: 200.0 mg/kg/injection, schedule: Q01DX010 (sc), vehicle: saline
[4] = dose: 600.0 mg/kg/injection, schedule: Q04DX003 (sc), vehicle: suspension in saline
[5] = dose: 1200.0 mg/kg/injection, schedule: Q04DX003 (sc), vehicle: suspension in saline
[6] = dose: 300.0 mg/kg/injection, schedule: Q04DX003 (sc), vehicle: saline with Tween-80
[7] = dose: 300.0 mg/kg/injection, schedule: Q04DX003 (sc), vehicle: Klucel (hydroxypropylcellulose) (HPC)
[8] = dose: 2400.0 mg/kg/injection, schedule: Q04DX003 (sc), vehicle: Klucel (hydroxypropylcellulose) (HPC)
[9] = dose: 50.0 mg/kg/injection, schedule: Q01DX010 (sc), vehicle: saline with Tween-80

## O=S(=O)(SC(S(=O)(=O)c1ccccc1)S(=O)(=O)c1ccccc1)c1ccccc1
dose: 100.0 mg/kg/injection, schedule: Q04DX003 (sc), vehicle: Klucel (hydroxypropylcellulose) (HPC)
  T/C: 115 % of control
dose: 400.0 mg/kg/injection, schedule: Q04DX003 (sc), vehicle: Klucel (hydroxypropylcellulose) (HPC)
  T/C: 69 % of control
[1]
  T/C: 63 % of control
dose: 800.0 mg/kg/injection, schedule: Q04DX003 (sc), vehicle: Klucel (hydroxypropylcellulose) (HPC)
  T/C: 77 % of control
[2]
  T/C: 65 % of control

## Nc1cc2[nH]cnc2c(=O)[nH]1
dose: 25.0 mg/kg/injection, schedule: Q01DX010 (sc), vehicle: saline
  T/C: 25 % of control
[3]
  T/C: 16 % of control and 18 % of control

## Cc1cc(NS(=O)(=O)c2ccc(N=Nc3cc(N=Nc4ccc(S(=O)(=O)Nc5cc(C)nc(C)n5)cc4)c4c(NC(=O)C(Cl)Cl)cccc4c3OC(=O)C(Cl)Cl)cc2)nc(C)n1 (tested in a mixture with another compound)
[4]
  T/C: 95 % of control
[5]
  T/C: 115 % of control
dose: 2400.0 mg/kg/injection, schedule: Q04DX003 (sc), vehicle: suspension in saline
  T/C: 121 % of control

## CC1(C)OCC(CO)(Nc2nc(N3CC3)nc(N3CC3)n2)CO1
dose: 1.25 mg/kg/injection, schedule: Q01DX010 (sc), vehicle: saline
  T/C: 74 % of control

## CC(=O)OC1COC(NC(=O)N(CCCl)N=O)C(OC(C)=O)C1OC(C)=O (configuration not stated)
dose: 1.5 mg/kg/injection, schedule: Q01DX010 (sc), vehicle: saline with Tween-80
  T/C: 83 % of control
dose: 3.0 mg/kg/injection, schedule: Q01DX010 (sc), vehicle: saline with Tween-80
  T/C: 71 % of control
dose: 6.0 mg/kg/injection, schedule: Q01DX010 (sc), vehicle: saline with Tween-80
  T/C: 60 % of control
dose: 12.0 mg/kg/injection, schedule: Q01DX010 (sc), vehicle: saline with Tween-80
  T/C: 72 % of control

## COC(=O)C[C@](O)(CCC(C)(C)O)C(=O)O[C@@H]1C(OC)=C[C@]23CCCN2CCc2cc4c(cc2[C@H]13)OCO4
dose: 0.63 mg/kg/injection, schedule: Q04DX003 (sc), vehicle: saline
  T/C: 115 % of control
dose: 1.25 mg/kg/injection, schedule: Q04DX003 (sc), vehicle: saline
  T/C: 110 % of control
dose: 2.5 mg/kg/injection, schedule: Q04DX003 (sc), vehicle: saline
  T/C: 95 % of control
dose: 5.0 mg/kg/injection, schedule: Q04DX003 (sc), vehicle: saline
  T/C: 102 % of control

## CCC1(O)CC2CN(CCc3c([nH]c4ccccc34)C(C(=O)OC)(c3cc4c(cc3OC)N(C)C3C(O)(C(N)=O)C(O)C5(CC)C=CCN6CCC43C65)C2)C1 (configuration not stated) (tested in a mixture with another compound)
dose: 1.5 mg/kg/injection, schedule: Q04DX003 (sc), vehicle: water
  T/C: 28 % of control

## BrC1CC(Br)c2c1c1c(c3c2C(Br)CC3Br)C(Br)CC1Br (configuration not stated)
dose: 300.0 mg/kg/injection, schedule: Q04DX003 (sc), vehicle: water
  T/C: 46 % of control
dose: 600.0 mg/kg/injection, schedule: Q04DX003 (sc), vehicle: water
  T/C: 43 % of control
dose: 1200.0 mg/kg/injection, schedule: Q04DX003 (sc), vehicle: water
  T/C: 29 % of control
dose: 2400.0 mg/kg/injection, schedule: Q04DX003 (sc), vehicle: water
  T/C: 29 % of control

## CCCCCCCCCCS(=O)CC(CO)NC(=O)/C=C/c1c(C)[nH]c(=O)[nH]c1=O (configuration not stated)
dose: 9.38 mg/kg/injection, schedule: Q04DX003 (sc), vehicle: distilled water + Tween-80
  T/C: 108 % of control
dose: 18.75 mg/kg/injection, schedule: Q04DX003 (sc), vehicle: distilled water + Tween-80
  T/C: 124 % of control

## CN(C)C1C(=O)C(C(=O)NP(=O)(NCCCO)N(CCCl)CCCl)=C(O)C2(O)C(=O)C3=C(O)c4c(O)cccc4C(C)(O)C3CC12 (configuration not stated)
[6]
  T/C: 47 % of control

## CNc1cccnc1/C=N/NC(N)=S
[6]
  T/C: 94 % of control
dose: 600.0 mg/kg/injection, schedule: Q04DX003 (sc), vehicle: saline with Tween-80
  T/C: 57 % of control
dose: 1200.0 mg/kg/injection, schedule: Q04DX003 (sc), vehicle: saline with Tween-80
  T/C: 67 % of control
dose: 2400.0 mg/kg/injection, schedule: Q04DX003 (sc), vehicle: saline with Tween-80
  T/C: 75 % of control

## CCOC(=O)C1=C(C#N)C2(CCC(OCc3ccccc3)CC2)C(=O)O1 (configuration not stated)
dose: 300.0 mg/kg/injection, schedule: Q04DX003 (sc), vehicle: suspension in saline
  T/C: 106 % of control
[4]
  T/C: 111 % of control
[5]
  T/C: 77 % of control

## O=C1C(NCCO)=C(N2CC2)C(=O)C(NCCO)=C1N1CC1
dose: 0.5 mg/kg/injection, schedule: Q04DX003 (ip), vehicle: saline
  T/C: 117 % of control
dose: 1.5 mg/kg/injection, schedule: Q04DX003 (sc), vehicle: suspension in saline
  T/C: 203 % of control
dose: 2.0 mg/kg/injection, schedule: Q04DX003 (ip), vehicle: saline
  T/C: 61 % of control
dose: 4.0 mg/kg/injection, schedule: Q04DX003 (ip), vehicle: saline
  T/C: 77 % of control

## CC1=NNC(=O)C1CCO (configuration not stated)
[7]
  T/C: 112 % of control
[1]
  T/C: 115 % of control
[2]
  T/C: 82 % of control
[8]
  T/C: 106 % of control

## NC(=O)c1ncn(C2OC(CO)C(O)C2O)c1O (configuration not stated)
dose: 150.0 mg/kg/injection, schedule: Q04DX003 (sc), vehicle: Klucel (hydroxypropylcellulose) (HPC)
  T/C: 99 % of control

## CCCCC1CCCCCCc2[nH]c(/C=C3\N=C(c4ccc[nH]4)C=C3OC)cc21 (configuration not stated)
dose: 4.0 mg/kg/injection, schedule: Q04DX003 (sc), vehicle: saline with Tween-80
  T/C: 61 % of control
dose: 8.0 mg/kg/injection, schedule: Q04DX003 (sc), vehicle: saline with Tween-80
  T/C: 66 % of control
dose: 16.0 mg/kg/injection, schedule: Q04DX003 (sc), vehicle: saline with Tween-80
  T/C: 55 % of control

## NCCc1ccc(O)c(O)c1
[3]
  T/C: 113 % of control
dose: 400.0 mg/kg/injection, schedule: Q01DX010 (sc), vehicle: saline
  T/C: 92 % of control
dose: 800.0 mg/kg/injection, schedule: Q01DX010 (sc), vehicle: saline
  T/C: 52 % of control

## CCc1ccccc1N1CCN(C(=O)c2cc(OC)c(OC)c(OC)c2)CC1
[7]
  T/C: 62 % of control
[1]
  T/C: 34 % of control
[2]
  T/C: 33 % of control
[8]
  T/C: 30 % of control

## C[Si](C)(C)n1nnn(-c2ccccc2)c1=O
dose: 75.0 mg/kg/injection, schedule: Q04DX003 (sc), vehicle: saline with Tween-80
  T/C: 94 % of control
dose: 150.0 mg/kg/injection, schedule: Q04DX003 (sc), vehicle: saline with Tween-80
  T/C: 105 % of control
[6]
  T/C: 107 % of control

## COc1ccc2c(NCCCCCCNc3c4ccccc4nc4cc(OC)ccc34)c3ccccc3nc2c1
dose: 1.25 mg/kg/injection, schedule: Q01DX010 (sc), vehicle: lactic acid
  T/C: 105 % of control
dose: 2.5 mg/kg/injection, schedule: Q01DX010 (sc), vehicle: lactic acid
  T/C: 100 % of control
dose: 10.0 mg/kg/injection, schedule: Q01DX010 (sc), vehicle: lactic acid
  T/C: 48 % of control

## CCN1/C(=C/C(C)=C/c2sc3ccc4ccccc4c3[n+]2CC)Sc2ccc3ccccc3c21
dose: 0.75 mg/kg/injection, schedule: Q04DX003 (sc), vehicle: Klucel (hydroxypropylcellulose) (HPC)
  T/C: 67 % of control
dose: 1.5 mg/kg/injection, schedule: Q04DX003 (sc), vehicle: Klucel (hydroxypropylcellulose) (HPC)
  T/C: 112 % of control
dose: 3.0 mg/kg/injection, schedule: Q04DX003 (sc), vehicle: Klucel (hydroxypropylcellulose) (HPC)
  T/C: 76 % of control
dose: 6.0 mg/kg/injection, schedule: Q04DX003 (sc), vehicle: Klucel (hydroxypropylcellulose) (HPC)
  T/C: 96 % of control
dose: 12.0 mg/kg/injection, schedule: Q04DX003 (sc), vehicle: Klucel (hydroxypropylcellulose) (HPC)
  T/C: 112 % of control
dose: 48.0 mg/kg/injection, schedule: Q04DX003 (sc), vehicle: Klucel (hydroxypropylcellulose) (HPC)
  T/C: 81 % of control and 92 % of control

## C[C@@H](CN1CC(=O)NC(=O)C1)N1CC(=O)NC(=O)C1
[9]
  T/C: 91 % of control
dose: 100.0 mg/kg/injection, schedule: Q01DX010 (sc), vehicle: saline with Tween-80
  T/C: 34 % of control

## C[C@]12CC[C@H]3[C@@H](CCC4=C[C@@H](OC5OCC(OC6OC(CO)C(O)C(O)C6O)C(O)C5O)CC[C@@]43C=O)[C@@]1(O)CCC2C1=CC(=O)OC1 (some centres not stated)
dose: 7.5 mg/kg/injection, schedule: Q04DX003 (sc), vehicle: Klucel (hydroxypropylcellulose) (HPC)
  T/C: 77 % of control
dose: 30.0 mg/kg/injection, schedule: Q04DX003 (sc), vehicle: Klucel (hydroxypropylcellulose) (HPC)
  T/C: 79 % of control
dose: 60.0 mg/kg/injection, schedule: Q04DX003 (sc), vehicle: Klucel (hydroxypropylcellulose) (HPC)
  T/C: 79 % of control

## O=c1[nH]c(=O)n(C2CC(O)C(CO)O2)cc1I (configuration not stated)
[9]
  T/C: 71 % of control

## CC(=O)N(C)C
dose: 450.0 mg/kg/injection, schedule: Q01DX010 (sc), vehicle: saline
  T/C: 70 % of control

— PubChem BioAssay AID264 (DTP/NCI, 2004)
